Active and inactive are the calls of the source.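 How the source made its calls: active means GFP ratio vs DMSO below 0.65 in a strain, using the primary screen cutoff set for that strain's protein target; inactive means the rest.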
Tests used:
Experiment in all cases: TORC1 pathway position of GFP reporter effects – S. cerevisiae, TORC1 bypass vs wild-type strains, mechanism study for yeast TOR pathway modulator project (AID 504479)
Details in all cases: fluorescence ratio vs DMSO, at 10 µM
YNL142W = test system: YNL142W
BY4741 = test system: BY4741
YCL025C = test system: YCL025C
YBR084C-A = test system: YBR084C-A
YKL103C = test system: YKL103C
YCR005C = test system: YCR005C
[1] = MEP2-GFP in TORC1 bypass strain, stronger effect = higher value
[2] = AGP1-GFP in TORC1 bypass strain, stronger effect = higher value
[3] = RPL19A-GFP in TORC1 bypass strain, stronger effect = lower value
[4] = LAP4-GFP in TORC1 bypass strain, stronger effect = higher value
[5] = CIT2-GFP in TORC1 bypass strain, stronger effect = higher value

CCSc1nnc(NC(=O)c2ccccn2)s1
GFP ratio vs DMSO (YNL142W; [1]): 1.06
GFP ratio vs DMSO (YNL142W): 1.01 (inactive)
GFP ratio vs DMSO (BY4741): 0.875 (inactive)
GFP ratio vs DMSO (YCL025C; [2]): 0.987
GFP ratio vs DMSO (YCL025C): 0.979 (inactive)
GFP ratio vs DMSO (YBR084C-A; [3]): 0.97
GFP ratio vs DMSO (YBR084C-A): 0.972 (inactive)
GFP ratio vs DMSO (YKL103C; [4]): 1.14
GFP ratio vs DMSO (YKL103C): 1.2 (inactive)
GFP ratio vs DMSO (YCR005C; [5]): 0.867
GFP ratio vs DMSO (YCR005C): 0.907 (inactive)

O=C(Oc1c(Cl)cc(Cl)c2cccnc12)c1ccco1
GFP ratio vs DMSO (YNL142W; [1]): 0.959
GFP ratio vs DMSO (YNL142W): 1.07 (inactive)
GFP ratio vs DMSO (BY4741): 1.18 (inactive)
GFP ratio vs DMSO (YCL025C; [2]): 0.699
GFP ratio vs DMSO (YCL025C): 0.897 (inactive)
GFP ratio vs DMSO (YBR084C-A; [3]): 1.29
GFP ratio vs DMSO (YBR084C-A): 1.31 (inactive)
GFP ratio vs DMSO (YKL103C; [4]): 1.19
GFP ratio vs DMSO (YKL103C): 1.78
GFP ratio vs DMSO (YCR005C; [5]): 0.81
GFP ratio vs DMSO (YCR005C): 0.971 (inactive)

O=C(CCc1ccccc1)NNC(=S)NC(=O)c1ccccc1
GFP ratio vs DMSO (YNL142W; [1]): 1.28
GFP ratio vs DMSO (YNL142W): 1.3 (inactive)
GFP ratio vs DMSO (BY4741): 1.32 (inactive)
GFP ratio vs DMSO (YCL025C; [2]): 0.882
GFP ratio vs DMSO (YCL025C): 1.09 (inactive)
GFP ratio vs DMSO (YBR084C-A; [3]): 1.33
GFP ratio vs DMSO (YBR084C-A): 1.31 (inactive)
GFP ratio vs DMSO (YKL103C; [4]): 1.88
GFP ratio vs DMSO (YKL103C): 3.08
GFP ratio vs DMSO (YCR005C; [5]): 0.847
GFP ratio vs DMSO (YCR005C): 1.04 (inactive)

CCCCC(=O)NNC(=S)NC(=O)c1ccc(C)cc1
GFP ratio vs DMSO (YNL142W; [1]): 1.24
GFP ratio vs DMSO (YNL142W): 1.22 (inactive)
GFP ratio vs DMSO (BY4741): 1.56 (inactive)
GFP ratio vs DMSO (YCL025C; [2]): 0.974
GFP ratio vs DMSO (YCL025C): 1.1 (inactive)
GFP ratio vs DMSO (YBR084C-A; [3]): 1.34
GFP ratio vs DMSO (YBR084C-A): 1.27 (inactive)
GFP ratio vs DMSO (YKL103C; [4]): 2.03
GFP ratio vs DMSO (YKL103C): 3.37
GFP ratio vs DMSO (YCR005C; [5]): 0.942
GFP ratio vs DMSO (YCR005C): 1.17 (inactive)

N/C(Cc1ccc(Cl)cc1)=N\OC(=O)c1cccc2ccccc12
GFP ratio vs DMSO (YNL142W; [1]): 1.05
GFP ratio vs DMSO (YNL142W): 1.23 (inactive)
GFP ratio vs DMSO (BY4741): 1.38 (inactive)
GFP ratio vs DMSO (YCL025C; [2]): 0.679
GFP ratio vs DMSO (YCL025C): 0.833 (inactive)
GFP ratio vs DMSO (YBR084C-A; [3]): 0.818
GFP ratio vs DMSO (YBR084C-A): 0.76 (inactive)
GFP ratio vs DMSO (YKL103C; [4]): 0.525
GFP ratio vs DMSO (YKL103C): 1.24 (inactive)
GFP ratio vs DMSO (YCR005C; [5]): 0.748
GFP ratio vs DMSO (YCR005C): 2.21

O=C1ON=C(c2ccccc2)/C1=C\c1ccco1
GFP ratio vs DMSO (YNL142W; [1]): 0.993
GFP ratio vs DMSO (YNL142W): 1.1 (inactive)
GFP ratio vs DMSO (BY4741): 0.875 (inactive)
GFP ratio vs DMSO (YCL025C; [2]): 0.759
GFP ratio vs DMSO (YCL025C): 1.01 (inactive)
GFP ratio vs DMSO (YBR084C-A; [3]): 0.897
GFP ratio vs DMSO (YBR084C-A): 0.947 (inactive)
GFP ratio vs DMSO (YKL103C; [4]): 1.26
GFP ratio vs DMSO (YKL103C): 1.97
GFP ratio vs DMSO (YCR005C; [5]): 0.826
GFP ratio vs DMSO (YCR005C): 1.1 (inactive)

CC(Oc1ccc(Cl)cc1)C(=O)NNC(=S)NC(=O)c1ccco1 (stereo not given)
GFP ratio vs DMSO (YNL142W; [1]): 1.2
GFP ratio vs DMSO (YNL142W): 1.48 (inactive)
GFP ratio vs DMSO (BY4741): 1.44 (inactive)
GFP ratio vs DMSO (YCL025C; [2]): 0.847
GFP ratio vs DMSO (YCL025C): 0.99 (inactive)
GFP ratio vs DMSO (YBR084C-A; [3]): 1.25
GFP ratio vs DMSO (YBR084C-A): 1.15 (inactive)
GFP ratio vs DMSO (YKL103C; [4]): 1.7
GFP ratio vs DMSO (YKL103C): 2.67
GFP ratio vs DMSO (YCR005C; [5]): 0.788
GFP ratio vs DMSO (YCR005C): 0.971 (inactive)

O=[N+]([O-])c1cc(Cl)c2cccnc2c1O
GFP ratio vs DMSO (YNL142W; [1]): 0.964
GFP ratio vs DMSO (YNL142W): 0.937 (inactive)
GFP ratio vs DMSO (BY4741): 0.755 (inactive)
GFP ratio vs DMSO (YCL025C; [2]): 0.738
GFP ratio vs DMSO (YCL025C): 0.999 (inactive)
GFP ratio vs DMSO (YBR084C-A; [3]): 0.937
GFP ratio vs DMSO (YBR084C-A): 1.04 (inactive)
GFP ratio vs DMSO (YKL103C; [4]): 1.17
GFP ratio vs DMSO (YKL103C): 1.52
GFP ratio vs DMSO (YCR005C; [5]): 0.67
GFP ratio vs DMSO (YCR005C): 0.937 (inactive)

Cc1ccc(S(=O)(=O)c2ncccc2[N+](=O)[O-])cc1
GFP ratio vs DMSO (YNL142W; [1]): 1.01
GFP ratio vs DMSO (YNL142W): 0.788 (inactive)
GFP ratio vs DMSO (BY4741): 1.09 (inactive)
GFP ratio vs DMSO (YCL025C; [2]): 0.888
GFP ratio vs DMSO (YCL025C): 0.84 (inactive)
GFP ratio vs DMSO (YBR084C-A; [3]): 0.99
GFP ratio vs DMSO (YBR084C-A): 1.04 (inactive)
GFP ratio vs DMSO (YKL103C; [4]): 1.5
GFP ratio vs DMSO (YKL103C): 1.82
GFP ratio vs DMSO (YCR005C; [5]): 0.847
GFP ratio vs DMSO (YCR005C): 0.688 (inactive)

C/C(=N\NC(=O)c1ccc(C(C)(C)C)cc1)c1ccccn1
GFP ratio vs DMSO (YNL142W; [1]): 0.969
GFP ratio vs DMSO (YNL142W): 0.804 (inactive)
GFP ratio vs DMSO (BY4741): 1.12 (inactive)
GFP ratio vs DMSO (YCL025C; [2]): 0.884
GFP ratio vs DMSO (YCL025C): 0.896 (inactive)
GFP ratio vs DMSO (YBR084C-A; [3]): 0.974
GFP ratio vs DMSO (YBR084C-A): 1.03 (inactive)
GFP ratio vs DMSO (YKL103C; [4]): 0.982
GFP ratio vs DMSO (YKL103C): 1.13 (inactive)
GFP ratio vs DMSO (YCR005C; [5]): 0.847
GFP ratio vs DMSO (YCR005C): 0.835 (inactive)

Source: PubChem BioAssay AID504479 (NMMLSC, 2011)
